Patent publication US4045556A, “Dipeptide derivatives, process for manufacture and pharmaceutical preparations” (priority 1974, dated 1977)

How the values were obtained:
Assay type in all cases: in vivo
[1] = tested on: lowering of body temperature caused by reserpine in mice; test: body temperature test (reserpine hypothermy); set-up: sum of the differences between the measured values and the initial temperature: unit not given here; details: for sum of the differences between the measured values and the initial temperature: reserpine 8 mg/kg i.p. 24 h before, rectal temperature every 20 min over 3 h; for effectiveness in counteracting the lowering of body temperature caused by reserpine, compared with TRH: result in words
Description: A series of standard tests were run.
Mice are intraperitoneally injected with 8 mg of reserpine per kilogram of body weight with a solution of reserpine, in 5% of ascorbic acid. After twenty-four hours the temperature of the animal has considerably dropped to a temperature, hereinafter designated as the "initial temperature", which is the reference temperature against which the effect of the compounds is measured. Then the test substance is injectd intraperitoneally. Thereafter, every twenty minutes, the temperature (rectal) is recorded over three hours. The sum of the differences between the measured values and the initial temperature are noted. These are reported below for different dosages.

[2] = tested on: reserpine-pretreated mice (hypomobility); test: test of motility (reserpine hypomotility); set-up: motility measurement: unit not given here; details: for motility measurement: mice, reserpine 5 mg/kg i.p. 10-20 h before, photocell activity cage; for stimulation of the mobility of animals: reserpine-pretreated mice, result in words
Description: Test mice were injected ten to twenty hours before the experiment with 5 mg of reserpine per kilogram of body weight, intraperitoneally. The animals developed until the beginning of the experiment a marked hypomobility. The test substances (TRH, A, B and C) are then injected intraperitoneally to groups of ten mice. Another group of ten mice pretreated with reserpine only acted as control group. The movement and activity of the animals are determined, measured and registered, the animals being confined in a photocell activity cage.
The average motility measurement for the reserpine pretreated control animals is 14.2, the untreated mice is 123.

[3] = tested on: toxicity of amphetamine in mice; test: amphetamine group toxicity (mortality rate); details: 15 min later amphetamine 7 mg/kg
Description: It is known that the toxicity of amphetamine is increased by administration of anti-depressive compounds, especially those that have a central nervous system stimulating activity, this activity being evidenced by an increased mortality in the test.
The test substances were intraperitoneally injected and fifteen minutes later the test animals were administered amphetamine in a dose of 7 mg per kilogram. […] Those animals which were treated only with amphetamine, as control, were still all alive at that time.

rats [4] = test: wet dog shaking test; details: 25 mg/kg i.p.
Description: The stimulant activity of Compound B is also shown in the "wet dog shaking" test of rats (standard test listed below).
Compound B was injected intraperitoneally and the animal activity is periodically observed. The effect of the substance is measured by the average number of shaking movements per minute. The dosage applied is 25 mg of substance/kilogram of body weight.

thyrotropin release = thyrotropin release (endocrinological properties), standard tests; details: comparison with TRH
Source text: The endocrinological properties of typical compounds of the invention, such as L-2-oxo-imidazolidine-4-carbonyl-L-histidyl-L-prolinamide-dihydrate (Compound A) and of orotyl-L-histidyl-L-prolinamide-dihydrate (Compound B) are compared to that of TRH, the thyrotropin-releasing hormone.

rats [5] = test: LD50 in rats
Description: (§1) For instance with Substance B the following values of the LD50 were determined: […]

mice = test: LD50 in mice
Description: as §1

[6] = tested on: central nervous system of test animals; test: central stimulation action in pharmacological tests; details: equal doses of TRH and compound
Source text: The compounds of formula I may be administered orally or parenterally. Their effects are observed quickly. For instance, on parenteral administration the effects occur already after ten minutes.
The most remarkable effects of the new products indicated in pharmacological tests is a central stimulation action.

Row | Structure (SMILES) | sum of the differences between the measured values and the initial temperature ([1]; substance 2 mg/kg i.p.) | sum of the differences between the measured values and the initial temperature ([1]; substance 5 mg/kg i.p.) | sum of the differences between the measured values and the initial temperature ([1]; substance 10 mg/kg i.p.) | sum of the differences between the measured values and the initial temperature ([1]; substance 20 mg/kg i.p.) | motility measurement ([2]; substance 3 mg/kg i.p.) | motility measurement ([2]; substance 5 mg/kg i.p.) | motility measurement ([2]; substance 10 mg/kg i.p.) | number of dead mice (in percent) sixty minutes after amphetamine ([3]; substance 10 mg/kg i.p.) [%] | number of dead mice (in percent) sixty minutes after amphetamine ([3]; substance 20 mg/kg i.p.) [%] | number of dead mice (in percent) sixty minutes after amphetamine ([3]; substance 50 mg/kg i.p.) [%] | number of dead mice (in percent) sixty minutes after amphetamine ([3]; substance 100 mg/kg i.p.) [%] | number of dead mice (in percent) sixty minutes after amphetamine ([3]; substance 200 mg/kg i.p.) [%] | average number of shaking movements per minute (rats [4]; 15 minutes after application) | average number of shaking movements per minute (rats [4]; 30 minutes after application) | stimulation of the mobility of animals [2] | dose required relative to TRH to obtain an equally marked thyrotropin release (thyrotropin release) | effectiveness in counteracting the lowering of body temperature caused by reserpine, compared with TRH [1] | further results
1 | NC(=O)[C@@H]1CCCN1C(=O)[C@H](Cc1c[nH]cn1)NC(=O)[C@@H]1CCC(=O)N1 [TRH, pyroglutamyl-histidyl-proline amide, reference compound] | 18.4 | 16.5 | 27.9 | 32.8 | 0.9 | 1.2 | 44.0 | 20 | 25 | 55 | 65 | 65 | 2.9 | 1.0 | – | – | – | –
2 | NC(=O)[C@@H]1CCCN1C(=O)[C@H](Cc1c[nH]cn1)NC(=O)C1CSCC(=O)N1.O (stereo partly drawn) [Compound C, L-5-oxo-thiomorpholine-3-carbonyl-L-histidyl-L-prolinamide-hydrate] | – | – | – | – | 51.0 | 72.0 | 69.0 | 60 | 70 | 70 | 70 | 90 | – | – | stimulate the mobility of animals | – | – | –
3 | NC(=O)[C@@H]1CCCN1C(=O)[C@H](Cc1c[nH]cn1)NC(=O)c1cc(=O)[nH]c(=O)[nH]1.O.O [Compound B, orotyl-L-histidyl-L-prolinamide-dihydrate] | 34.6 | 42.3 | 55.3 | 67.1 | 98.0 | 106.0 | 104.0 | 70 | 55 | 75 | 90 | 80 | 5.25 | 3.8 | stimulate the mobility of animals | ten-times greater dose than TRH | marketly more effective than TRH | average number of shaking movements per minute (rats [4]; 45 minutes after application): 3.2; average number of shaking movements per minute (rats [4]; 60 minutes after application): 2.15; average number of shaking movements per minute (rats [4]; 75 minutes after application): 2.1; average number of shaking movements per minute (rats [4]; 90 minutes after application): 1.55; average number of shaking movements per minute (rats [4]; 105 minutes after application): 1.05; average number of shaking movements per minute (rats [4]; 120 minutes after application): 0.6; average number of shaking movements per minute (rats [4]; 135 minutes after application): 0.3; duration of action compared with TRH (rats [4]; result in words): longer acting than TRH; LD50 (rats [5]; intramuscularly): > 4000 mg/kg; LD50 (rats [5]; intraveneously): 1000 mg/kg; LD50 (rats [5]; orally): > 1000 mg/kg; LD50 (mice; intramuscularly): > 4000 mg/kg; LD50 (mice; intraveneously): 1200 mg/kg; LD50 (mice; orally): > 1000 mg/kg; duration of effect relative to TRH [6]: several times longer; strength of stimulating effect on the central nervous system relative to TRH [6]: about five times stronger
4 | NC(=O)[C@@H]1CCCN1C(=O)[C@H](Cc1c[nH]cn1)NC(=O)C1CNC(=O)N1.O.O (stereo partly drawn) [Compound A, L-2-oxo-imidazolidine-4-carbonyl-L-histidyl-L-prolinamide-dihydrate] | 20.8 | 26.1 | 32.8 | 40.1 | 17.0 | 21.7 | 94.1 | 15 | 40 | 60 | 50 | 85 | – | – | stimulate the mobility of animals | ten-times greater dose than TRH | marketly more effective than TRH | –
